Assay results from ChEMBL document CHEMBL1140040, “Synthesis and cytotoxic activity of some novel polycyclic gamma-butyrolactones” (Bioorg Med Chem Lett, 2008).

Key:
COLO 205 [1] = assay: Cytotoxicity against human COLO205 cells assessed as age growth inhibition at 50 uM after 48 hrs by sulforhodamine B assay; assay type: functional; conditions: COLO 205, 48 h, read-out: GI
COLO 205 [2] = assay: Cytotoxicity against human COLO205 cells assessed as age growth inhibition at 100 uM after 48 hrs by sulforhodamine B assay; assay type: functional; conditions: COLO 205, 48 h, read-out: GI
IGROV-1 [3] = assay: Cytotoxicity against human IGROV1 cells assessed as age growth inhibition at 10 uM after 48 hrs by sulforhodamine B assay; assay type: functional; conditions: IGROV-1, 48 h, read-out: GI
IGROV-1 [4] = assay: Cytotoxicity against human IGROV1 cells assessed as age growth inhibition at 50 uM after 48 hrs by sulforhodamine B assay; assay type: functional; conditions: IGROV-1, 48 h, read-out: GI
IGROV-1 [5] = assay: Cytotoxicity against human IGROV1 cells assessed as age growth inhibition at 100 uM after 48 hrs by sulforhodamine B assay; assay type: functional; conditions: IGROV-1, 48 h, read-out: GI
SK-OV-3 [6] = assay: Cytotoxicity against human SKOV3 cells assessed as age growth inhibition at 10 uM after 48 hrs by sulforhodamine B assay; assay type: functional; conditions: SK-OV-3, 48 h, read-out: GI
SK-OV-3 [7] = assay: Cytotoxicity against human SKOV3 cells assessed as age growth inhibition at 50 uM after 48 hrs by sulforhodamine B assay; assay type: functional; conditions: SK-OV-3, 48 h, read-out: GI
SK-OV-3 [8] = assay: Cytotoxicity against human SKOV3 cells assessed as age growth inhibition at 100 uM after 48 hrs by sulforhodamine B assay; assay type: functional; conditions: SK-OV-3, 48 h, read-out: GI
DU-145 [9] = assay: Cytotoxicity against human DU145 cells assessed as age growth inhibition at 10 uM after 48 hrs by sulforhodamine B assay; assay type: functional; conditions: DU-145, 48 h, read-out: GI
DU-145 [10] = assay: Cytotoxicity against human DU145 cells assessed as age growth inhibition at 50 uM after 48 hrs by sulforhodamine B assay; assay type: functional; conditions: DU-145, 48 h, read-out: GI
DU-145 [11] = assay: Cytotoxicity against human DU145 cells assessed as age growth inhibition at 100 uM after 48 hrs by sulforhodamine B assay; assay type: functional; conditions: DU-145, 48 h, read-out: GI
HEp-2 [12] = assay: Cytotoxicity against human HEP2 cells assessed as age growth inhibition at 10 uM after 48 hrs by sulforhodamine B assay; assay type: functional; conditions: HEp-2, 48 h, read-out: GI
HEp-2 [13] = assay: Cytotoxicity against human HEP2 cells assessed as age growth inhibition at 50 uM after 48 hrs by sulforhodamine B assay; assay type: functional; conditions: HEp-2, 48 h, read-out: GI
HEp-2 [14] = assay: Cytotoxicity against human HEP2 cells assessed as age growth inhibition at 100 uM after 48 hrs by sulforhodamine B assay; assay type: functional; conditions: HEp-2, 48 h, read-out: GI
SF-295 [15] = assay: Cytotoxicity against human SF295 cells assessed as age growth inhibition at 10 uM after 48 hrs by sulforhodamine B assay; assay type: functional; conditions: SF-295, 48 h, read-out: GI
SF-295 [16] = assay: Cytotoxicity against human SF295 cells assessed as age growth inhibition at 50 uM after 48 hrs by sulforhodamine B assay; assay type: functional; conditions: SF-295, 48 h, read-out: GI
SF-295 [17] = assay: Cytotoxicity against human SF295 cells assessed as age growth inhibition at 100 uM after 48 hrs by sulforhodamine B assay; assay type: functional; conditions: SF-295, 48 h, read-out: GI
A549 [18] = assay: Antiproliferative activity against human A549 cells after 48 hrs by sulforhodamine B assay; assay type: functional, cell-based; conditions: A549, 48 h
HOP-62 [19] = assay: Antiproliferative activity against human HOP62 cells after 48 hrs by sulforhodamine B assay; assay type: functional, cell-based; conditions: HOP-62, 48 h
HCT-15 [20] = assay: Antiproliferative activity against human HCT15 cells after 48 hrs by sulforhodamine B assay; assay type: functional, cell-based; conditions: HCT-15, 48 h
COLO 205 [21] = assay: Antiproliferative activity against human COLO205 cells after 48 hrs by sulforhodamine B assay; assay type: functional, cell-based; conditions: COLO 205, 48 h
IGROV-1 [22] = assay: Antiproliferative activity against human IGROV1 cells after 48 hrs by sulforhodamine B assay; assay type: functional, cell-based; conditions: IGROV-1, 48 h
SK-OV-3 [23] = assay: Antiproliferative activity against human SKOV3 cells after 48 hrs by sulforhodamine B assay; assay type: functional, cell-based; conditions: SK-OV-3, 48 h
DU-145 [24] = assay: Antiproliferative activity against human DU145 cells after 48 hrs by sulforhodamine B assay; assay type: functional, cell-based; conditions: DU-145, 48 h
HEp-2 [25] = assay: Antiproliferative activity against human HEP2 cells after 48 hrs by sulforhodamine B assay; assay type: functional, cell-based; conditions: HEp-2, 48 h
SF-295 [26] = assay: Antiproliferative activity against human SF295 cells after 48 hrs by sulforhodamine B assay; assay type: functional, cell-based; conditions: SF-295, 48 h
A549 [27] = assay: Cytotoxicity against human A549 cells assessed as age growth inhibition at 10 uM after 48 hrs by sulforhodamine B assay; assay type: functional; conditions: A549, 48 h, read-out: GI
A549 [28] = assay: Cytotoxicity against human A549 cells assessed as age growth inhibition at 50 uM after 48 hrs by sulforhodamine B assay; assay type: functional; conditions: A549, 48 h, read-out: GI
A549 [29] = assay: Cytotoxicity against human A549 cells assessed as age growth inhibition at 100 uM after 48 hrs by sulforhodamine B assay; assay type: functional; conditions: A549, 48 h, read-out: GI
HOP-62 [30] = assay: Cytotoxicity against human HOP62 cells assessed as age growth inhibition at 10 uM after 48 hrs by sulforhodamine B assay; assay type: functional; conditions: HOP-62, 48 h, read-out: GI
HOP-62 [31] = assay: Cytotoxicity against human HOP62 cells assessed as age growth inhibition at 50 uM after 48 hrs by sulforhodamine B assay; assay type: functional; conditions: HOP-62, 48 h, read-out: GI
HOP-62 [32] = assay: Cytotoxicity against human HOP62 cells assessed as age growth inhibition at 100 uM after 48 hrs by sulforhodamine B assay; assay type: functional; conditions: HOP-62, 48 h, read-out: GI
HCT-15 [33] = assay: Cytotoxicity against human HCT15 cells assessed as age growth inhibition at 10 uM after 48 hrs by sulforhodamine B assay; assay type: functional; conditions: HCT-15, 48 h, read-out: GI
HCT-15 [34] = assay: Cytotoxicity against human HCT15 cells assessed as age growth inhibition at 50 uM after 48 hrs by sulforhodamine B assay; assay type: functional; conditions: HCT-15, 48 h, read-out: GI
HCT-15 [35] = assay: Cytotoxicity against human HCT15 cells assessed as age growth inhibition at 100 uM after 48 hrs by sulforhodamine B assay; assay type: functional; conditions: HCT-15, 48 h, read-out: GI
COLO 205 [36] = assay: Cytotoxicity against human COLO205 cells assessed as age growth inhibition at 10 uM after 48 hrs by sulforhodamine B assay; assay type: functional; conditions: COLO 205, 48 h, read-out: GI

IC50 (A549 [18]) [µM] | IC50 (HCT-15 [20]) [µM] | SMILES | inhibition of growth at 50 µM (COLO 205 [1]) [%] | inhibition of growth at 100 µM (COLO 205 [2]) [%] | inhibition of growth at 10 µM (IGROV-1 [3]) [%] | inhibition of growth at 50 µM (IGROV-1 [4]) [%] | inhibition of growth at 100 µM (IGROV-1 [5]) [%] | inhibition of growth at 10 µM (SK-OV-3 [6]) [%] | inhibition of growth at 50 µM (SK-OV-3 [7]) [%] | inhibition of growth at 100 µM (SK-OV-3 [8]) [%] | inhibition of growth at 10 µM (DU-145 [9]) [%] | inhibition of growth at 50 µM (DU-145 [10]) [%] | inhibition of growth at 100 µM (DU-145 [11]) [%] | inhibition of growth at 10 µM (HEp-2 [12]) [%] | inhibition of growth at 50 µM (HEp-2 [13]) [%] | inhibition of growth at 100 µM (HEp-2 [14]) [%] | inhibition of growth at 10 µM (SF-295 [15]) [%] | inhibition of growth at 50 µM (SF-295 [16]) [%] | inhibition of growth at 100 µM (SF-295 [17]) [%] | IC50 (HOP-62 [19]) [µM] | further results
97.6 | 75.3 | CC1(C)CCC[C@@]2(C)C1=C[C@H]1C(=O)O[C@H](c3ccccc3)[C@H]12 | 34 | 79 | 0 | 22 | 63 | 20 | 30 | 57 | 15 | 32 | 56 | 6 | 18 | 37 | 15 | 18 | 22 | > 100 | IC50 (COLO 205 [21]): 63.6 µM; IC50 (IGROV-1 [22]): 83.7 µM; IC50 (SK-OV-3 [23]): 86.5 µM; IC50 (DU-145 [24]): 87.6 µM; IC50 (HEp-2 [25]): > 100 µM; IC50 (SF-295 [26]): > 100 µM; inhibition of growth at 10 µM (A549 [27]): 11%; inhibition of growth at 50 µM (A549 [28]): 29%; inhibition of growth at 100 µM (A549 [29]): 51%; inhibition of growth at 10 µM (HOP-62 [30]): 16%; inhibition of growth at 50 µM (HOP-62 [31]): 21%; inhibition of growth at 100 µM (HOP-62 [32]): 28%; inhibition of growth at 10 µM (HCT-15 [33]): 9%; inhibition of growth at 50 µM (HCT-15 [34]): 46%; inhibition of growth at 100 µM (HCT-15 [35]): 56%; inhibition of growth at 10 µM (COLO 205 [36]): 14%
> 100 | > 100 | CC1(C)CCC[C@@]2(C)C1=C[C@H]1C(=O)O[C@H](c3ccc(Br)cc3)[C@H]12 | 14 | 32 | 7 | 26 | 30 | 6 | 28 | 52 | 21 | 27 | 28 | 3 | 18 | 22 | 0 | 18 | 21 | 49.5 | IC50 (COLO 205 [21]): > 100 µM; IC50 (IGROV-1 [22]): > 100 µM; IC50 (SK-OV-3 [23]): 95.1 µM; IC50 (DU-145 [24]): > 100 µM; IC50 (HEp-2 [25]): > 100 µM; IC50 (SF-295 [26]): > 100 µM; inhibition of growth at 10 µM (A549 [27]): 8%; inhibition of growth at 50 µM (A549 [28]): 10%; inhibition of growth at 100 µM (A549 [29]): 26%; inhibition of growth at 10 µM (HOP-62 [30]): 0%; inhibition of growth at 50 µM (HOP-62 [31]): 55%; inhibition of growth at 100 µM (HOP-62 [32]): 66%; inhibition of growth at 10 µM (HCT-15 [33]): 7%; inhibition of growth at 50 µM (HCT-15 [34]): 32%; inhibition of growth at 100 µM (HCT-15 [35]): 40%; inhibition of growth at 10 µM (COLO 205 [36]): 14%
89.1 | 77.1 | COc1ccc([C@H]2OC(=O)[C@@H]3C=C4C(C)(C)CCC[C@]4(C)[C@H]23)cc1 | 15 | 52 | 3 | 30 | 51 | 0 | 0 | 21 | 8 | 12 | 43 | 3 | 23 | 27 | 0 | 16 | 16 | 94.8 | IC50 (COLO 205 [21]): 99.2 µM; IC50 (IGROV-1 [22]): 94.2 µM; IC50 (SK-OV-3 [23]): > 100 µM; IC50 (DU-145 [24]): > 100 µM; IC50 (HEp-2 [25]): > 100 µM; IC50 (SF-295 [26]): > 100 µM; inhibition of growth at 10 µM (A549 [27]): 8%; inhibition of growth at 50 µM (A549 [28]): 31%; inhibition of growth at 100 µM (A549 [29]): 55%; inhibition of growth at 10 µM (HOP-62 [30]): 10%; inhibition of growth at 50 µM (HOP-62 [31]): 30%; inhibition of growth at 100 µM (HOP-62 [32]): 52%; inhibition of growth at 10 µM (HCT-15 [33]): 16%; inhibition of growth at 50 µM (HCT-15 [34]): 45%; inhibition of growth at 100 µM (HCT-15 [35]): 55%; inhibition of growth at 10 µM (COLO 205 [36]): 0%
